Measured values from patent publication US12630523B2, “Isoquinoline derivatives for use as antiviral and antitumour agents” (priority 2021, dated 2026).

Assays:
[1] = test system: SARS-CoV-2 isolate BetaCov/Belgium/GHB-03021/2020; assay: microbe, parasite or virus in culture; assay type: cell-based; conditions: 1.25 μM (non-toxic compound concentration), n4; for inhibition at 1.25 µM: Severe acute respiratory syndrome coronavirus 2
[2] = test system: cell signaling molecules (4E-BP1, p70 S6 kinase, Akt, PTPN14, p53, PD-L1); assay: Western blot of cell signaling molecules in CaSki cells; conditions: CaSki; for Phosphorylation of 4E-BP1 on Ser65 and the p70S6 kinase on Thr389: 6 h, order 10 μM VSP035, Torin 1, Torin 2, rapamycin, 5 μM VSP035, CGP 57380; for phosphorylation of AKT on Ser473: 6 h treatment
HPV16 E7 protein = target: T1, HPV16 E7 protein (Human papillomavirus type 16, UniProt P03129); assay type: cell-based; conditions: CaSki cells; adjusted degradation, CHX steady state set to 100% degradation
T1 construct: endogenous in cells; host or cells: CaSki cells (HPV16-positive cervical carcinoma)
T1 sequence (P03129 whole entry): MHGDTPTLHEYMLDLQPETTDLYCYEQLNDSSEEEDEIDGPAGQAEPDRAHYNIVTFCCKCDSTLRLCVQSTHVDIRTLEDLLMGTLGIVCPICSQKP
Experimental: For intracellular antibody labeling, 0.5×10^6 cells are washed once with 1 ml ice-cold PBS. Cells are centrifuged at 350×g for 5 minutes at 4° C. and then fixed in 1% paraformaldehyde (1 ml/10^6 cells) for 20 minutes at 4° C. Cells are washed with 1 ml ice-cold PBS and centrifuged at 350×g for 5 minutes at 4° C. To permeabilize cells, 100% ice-cold methanol (1 ml/10^6 cells) is added to the cells and incubated for 20 minutes at 4° C. followed by centrifugation at 350×g for 5 minutes at 4° C. Cells are washed with 1 ml ice-cold PBS, centrifuged at 350×g for 5 minutes at 4° C. and resuspended in 0.1% saponin+2% FBS in PBS (ice-cold). Cells are left for 20-30 minutes at room temperature to reduce the background signal and then centrifuged at 350×g for 5 minutes at 4° C. The primary antibody (mAb_HPV16E7-1 (VS13004); concentration 1 μg/μl) is diluted in 0.1% saponin+2% FBS (dilution 0.25 μg/50 μl of incubation buffer per 1×10^6 cells (5 ng/μl)). Cells are incubated with primary antibody for 30 minutes at room temperature, washed with 0.1% saponin+2% FBS and centrifuged at 350×g for 5 minutes at 4° C. The secondary antibody (FITC conjugated goat anti-mouse IgG1-IgM, BD, cat. #555988) is diluted in 0.1% saponin+2% FBS (dilution 1:50). Cells are incubated with secondary antibody for 30 minutes at room temperature, washed once with 0.1% saponin+2% FBS, once with PBS and centrifuged at 350×g for 5 minutes at 4° C.
Cells are resuspended in 700 μl PBS prior to CF analysis with a Beckman Coulter FC 500 MPL, (excitation laser 488 nm). Data analysis is done using the Beckman Coulter software packages MXP for acquisition and CXP for data analysis which includes MFI calculation. Detection of HPV-E7 protein expression is based on morphology back-gating of FL1 histogram (logarithmic scale) with gating for dot plot FS (Forward Scatter) log/SS (Sideward Scatter) log and gating for histograms SS log.
In order to define the level of E7 protein expression and to study the extent of E7 protein steady state level reduction in E7 expressing cells in the presence of various compounds, FC analysis is implemented using the intracellular antibody labeling procedure for monoclonal antibodies to HPV E7. E7 signal intensities are analyzed from the obtained FL1 histograms at logarithmic scale. The FL1 single histogram graph represents the variation in the mean fluorescence intensity (MFI) channel for cells treated with selected compounds compared to cells not incubated with primary antibodies but incubated with secondary, which allows to test for auto-fluorescence, and non-compound treated cells as controls. Non-primary antibody-stained cells are used to set the acquisition parameters to zero. Decrease of the mean fluorescence intensity channel corresponds to a decrease in the expression of HPV16 E7 protein. Degradation of E7 in cells is calculated as percent (%) reduction in MFI(x-Me) using the following formulas: % Drel=(T−C)/T*100; i) relative degradation: % Dad=(T−C)/(T−CHX)*100; ii) adjusted degradation: • Drel=relative degradation, • Dad=adjusted degradation assuming CHX % Drel=100; • T=MFI of non-treated cells; • C=MFI of compound treated cells; • CH=MFI of cycloheximide (CHX) treated cells;
For comparison within one experiment i) the % relative degradation (Drel) is sufficient, whereas for comparison between two or more experiments ii) the adjusted degradation (Dad) is used and CHX steady state is set to a 100% degradation parameter.
1×10^6 freshly seeded CaSki cells (ATCC CRL-7915), are grown in 10 cm diameter cell culture dishes in RPMI1640, 10% FCS medium at 37° C. 5% CO2 overnight and then incubated in the presence of 10 μM Cycloheximide (CHX) 10 μM OC246 or with vehicle alone for four hours at 37° C. 5% CO2. Following this E7 protein is assessed by cytofluorimetric analysis using intracellular HPV16 E7 antibody labeling. […]

CaSki cells = assay: Cell cycle analysis using Propidium-Iodide staining (flow cytometry); assay type: cell-based, human; conditions: 48 hour incubation; for A*/5 μM (apoptosis as measured from total SUB G1 content) / A*/10 μM (apoptosis as measured from total SUB G1 content): no treatment 15.0; for G2/5 μM / G1/5 μM / G2/10 μM / G1/10 μM: cell cycle distribution; for G2/5 μM / G2/10 μM: no treatment 15.6; for G1/5 μM / G1/10 μM: no treatment 53.3
Experimental: Propidium-Iodide (PI) DNA staining is performed to facilitate cell cycle analysis. For PI-DNA staining, fixed cells and eventually antibody-stained cells are resuspended in 450 μl of PBS (per 10^6 cells) and incubated with 100 μg/ml RNase (stock 1 mg/ml, in PBS) for 10 minutes at 37° C. Cells are then incubated with 5 μg/106 cells of PI (stock 1 mg/ml in PBS) for 10 minutes at room temperature. Samples are stored at 4° C. until CF analysis.
CaSki cells were incubated with various compounds and cell cycle distribution of the cells was assessed using Propidium-Iodide staining.
In order to analyze the cytostatic versus the cytotoxic effect of OC compounds, cell cycle profiles were analyzed in vitro after 48 hour incubations using Flow Cytometry as a read out. For this a cell cycle analysis from selected OC E7 degrader compounds was conducted in CaSki cells. Using 6 well plates, 1.5×10^5 cells were seeded for each well and grown over night at 37° C. 5% CO2. For analysis of the cell cycle behavior, cells were analyzed in the presence of propidium Iodide (PI^−) by flow cytometry (FC). Briefly, cells were detached by trypsin digestion, all supernatants were included in the analysis, and fixed with 70% ice cold ethanol and stored at 4° C. until FC analysis using PI^− staining (1 mg/ml). At least 7000 events were acquired for each sample.

[3] = test system: CaSki (ATCC CRM-CRL-1550); assay: Monolayer assay using Sulphorhodamine B (SRB) staining, CaSki; assay type: cell-based; conditions: Homo sapiens, Ca-Ski, read-out: EC50 mean [nM]
Experimental: Various cell culture cells grown as monolayers are harvested from exponential growing cultures after treatment with various OC compounds at different concentrations. For this depending on the cell line, 10.000 to 30.000 cells were plated in 96-well flat-bottom microtiter plates. After a 24 h recovery period to allow cells to resume exponential growth, supernatants are discarded and 100 μl of culture medium (eight control wells/plate) or culture medium with the test compound are added by a liquid handling robotic system (Microlab® Starlet, Hamilton) and treatment continued for 72 hrs. Compounds are applied at 9 concentrations and eight wells/concentration). At least three independent experiments are performed. For SRB staining, cells are fixed with SRB01 (Tab. 5) for 1 h at 4° C. (final concentration of TCA=10%) washed with a plate washer (Hydroflex, Tecan©) for five times with H2O; and stained with 100 μl of SRB02 at room temperature for 10 min following 4 washes in SRB03 and finally 100 μl of developer solution SRB04 for 5 minutes with shaking. Optical density is assessed using a plate-reader (Sunrise, Tecan©) at 540 nm.
Concentrations required for half maximal response of the compound for cell growth inhibition (EC50) is calculated by non-linear regression (log[conc. of inhibitor] versus response (% T/C)) using the analysis software GraphPad Prism®, Prism 5 for windows, version 5.01 (GraphPad Software Inc., CA).

[4] = test system: human cervical carcinoma (CaSki) xenograft; assay: CaSki high risk HPV16 human cervical carcinoma xenograft model; assay type: in vivo, nude mice
Experimental: The aim of this study was to assess the in vivo efficacy of OC246 and OC974 on a human cervical carcinoma (CaSki) xenograft model in nude mice. OC246 and OC974 were administered oral once daily for four times with three days off, for three cycles at 2 mg/kg/dose. Cisplatin (CDDP) was used as a reference compound with three weekly intravenous (q7dx3) administrations of 6 mg/kg.

| Compound | % Inhibition [1] | Phosphorylation of 4E-BP1 on Ser65 and the p70S6 kinase on Thr389 [2] | phosphorylation of AKT on Ser473 [2] | % Dad (HPV16 E7 protein) | A*/5 μM (apoptosis as measured from total SUB G1 content) (CaSki cells) | A*/10 μM (apoptosis as measured from total SUB G1 content) (CaSki cells) | G2/5 μM (CaSki cells) | G1/5 μM (CaSki cells) | G2/10 μM (CaSki cells) | G1/10 μM (CaSki cells) | EC50 [3] | inhibition at 1.25 µM [1] | % TGI (Day 44): percentage tumor growth inhibition with respect to controls ([4]; OC246/OC974 os 2 mg/kg/day, 4 × week, 3 cycles, CDDP i.v. q7d × 3, 6 mg/kg) | Δ% on Day 44 ([4]; OC246/OC974 os 2 mg/kg/day, CDDP i.v. 6 mg/kg, control 100) | Tumor Volume Day 44 (mm^3 ± SD) ([4]; OC246/OC974 os daily 4 × week, 3 cycles, 2 mg/kg/day, CDDP i.v. q7d × 3, 6 mg/kg, control 1099 ± 503) | Δ% Body Weight ([4]; between first day of treatment (day 20) and Day 44, OC246/OC974 os 2 mg/kg/day, CDDP i.v. 6 mg/kg, control +4.9) |
| --- | --- | --- | --- | --- | --- | --- | --- | --- | --- | --- | --- | --- | --- | --- | --- | --- |
| CCC(=O)N1CCN(c2ccc(-n3c(=O)ccc4cnc5ccc(-c6cnc7ccccc7c6)cc5c43)cc2C(F)(F)F)CC1 [Torin 1, reference compound] | 7.00% | inhibited or strongly reduced | inhibited | – | – | – | – | – | – | – | – | – | – | – | – | – |
| CN1CCN(c2cccc(NC(=O)[C@@H]3c4ccccc4C(=O)N(Cc4ccncc4)[C@H]3c3ccc(C(F)(F)F)cc3)c2)CC1 (relative stereo) [OC975] | – | – | – | 67% | 13.9% | 11.8% | 10.4% | 49.9% | 10.5% | 51.4% | 4340 nM | 0.17% | – | – | – | – |
| Nc1ccc(-c2ccc3ncc4ccc(=O)n(-c5cccc(C(F)(F)F)c5)c4c3c2)cn1 [Torin2, reference compound] | 1.46% | inhibited or strongly reduced | inhibited | – | – | – | – | – | – | – | – | – | – | – | – | – |
| Cc1ccc(CN2C(=O)c3ccccc3[C@@H](C(=O)Nc3cccc(N4CCOCC4)c3)[C@@H]2c2ccc(C(F)(F)F)cc2)cc1 (relative stereo) [OC973] | – | – | – | 20% | 11.1% | 13.0% | 17.6% | 52.1% | 11.5% | 52.6% | 6720 nM | 0.95% | – | – | – | – |
| Cc1ccc(CN2C(=O)c3ccccc3[C@@H](C(=O)Nc3ccc(N4CCN(C)CC4)cc3)[C@@H]2c2ccc(C(F)(F)F)cc2)cc1 (relative stereo) [OC972] | – | – | – | 32% | 12.8% | 13.5% | 16.9% | 53.2% | 15.9% | 48.4% | 67700 nM | 5.37% | – | – | – | – |
| Cc1ccc(CN2C(=O)c3ccccc3[C@@H](C(=O)Nc3cccc(N4CCN(C)CC4)c3)[C@@H]2c2ccc(C(F)(F)F)nc2)cc1 (relative stereo) [OC968] | – | – | – | 37% | 11.9% | 11.6% | 18.0% | 52.7% | 19.7% | 48.0% | 10600 nM | 2.09% | – | – | – | – |
| [NH2][Pt]([NH2])([Cl])[Cl] [CDDP, Cisplatin, reference compound] | – | – | – | – | – | – | – | – | – | – | – | – | 79.2% | 14% | 242 ± 182 mm^3 | −10.2% |
| CN1CCN(c2cccc(NC(=O)[C@@H]3c4ccccc4C(=O)N(Cc4cccnc4)[C@H]3c3ccc(C(F)(F)F)cc3)c2)CC1 (relative stereo) [OC976] | – | – | – | 54% | 11.4% | 12.8% | 9.3% | 58.8% | 16.9% | 53.2% | 4720 nM | 27.1% | – | – | – | – |
